Results published in article PMC10610545, “Preclinical Evaluation of an Imidazole-Linked Heterocycle for Alzheimer’s Disease” (Pharmaceutics, 2023).

Key:
HT-22 hippocampal cells = experiment: Glutamate-induced damage in HT-22 cells (MTT viability, Griess nitrite); type: cell-based, mouse; details: HT-22, 10 mM glutamate; for neuroprotection (cell viability, MTT): 1 h pretreatment, LSL33 2 μM, LSL34 and LSL60101 1 μM; for nitrite production: culture supernatant
Description: In the study of neurotoxicity associated with AD, the HT22 mouse hippocampal neuronal cell line has been recognized as an effective cell model. HT22 cells were purchased from Merck-Sigma-Aldrich (SCC12, Madrid, Spain) and cultured in DMEM-F12 (Gibco, Fisher Scientific, Madrid, Spain) supplemented with foetal bovine serum (FBS, 10%) and 1% penicillin/streptomycin under standard conditions (37 °C, 5% CO2). The human dopaminergic cell line SH-SY5Y, in turn, has been widely used as an in vitro model to study the pathogenesis of PD associated with dopaminergic degeneration. Cells, acquired from the American Type Culture Collection (ATCC, Rockville, MD, USA, Ref.CRL-2266), were grown in RPMI medium (Gibco) supplemented with glutamine (2 mM), 10% FBS, and 1% penicillin/streptomycin under standard conditions. Semiconfluent cells (90%) were seeded on 96-well plates at 3 × 10^4 per well and incubated for 24 h before treatment.
Neuronal cultures, HT-22 and SH-SY5Y, seeded on 96-well plates were treated with LSL33, LSL34, and LSL60101 for 24 h, and viability was assessed using the MTT assay. […] Then, cultures were treated for 1h with LSL33 at 2 μM and LSL34 and LSL60101 at 1 μM. This dose was chosen based on previous studies. Subsequently, HT-22 cultures were exposed to glutamate (10 mM, Merck-Sigma), while SH-SY5Y cultures received 6-hydroxydopamine (6-OHDA, 35 μM, Merck-Sigma). The cells were then incubated for a minimum of 16 h. Finally, the cellular viability and nitrite production of the cultures were assessed.
The assessment of cell viability was conducted using the 3-(4,5-dimethylthiazol-2-yl)-5-(3-carboxymethoxyphenyl)-2-(4-sulfophenyl)-2H-tetrazolium (MTT) assay, following the instructions provided by the manufacturer (Roche Diagnostic, Darmstadt, Germany). Briefly, after exposure to glutamate or 6-OHDA, the cell culture medium was replaced with 100 μL of fresh culture medium containing MTT solution (0.5 mg/mL) and incubated for 1 h. The medium was then removed, and the resulting formazan crystals were dissolved in dimethylsulfoxide (DMSO, Merck-Sigma). The absorbance of the solution was measured at 595–650 nm using a spectrophotometer. The experiments were performed at least three times, and the results were expressed as a percentage of the control.
Following the designated treatments, 100 μL of the cell culture supernatant was mixed with an equal volume of Griess reagent (consisting of 1% sulfanylamide and 0.1% naphthyl ethylene diamine in 5% phosphoric acid, sourced from Sigma-Aldrich, Madrid, Spain) at room temperature for 15 min. To determine the nitrite concentrations, a standard solution of sodium nitrite was employed. The absorbance of the mixture was measured at 492/540 nm using a microplate reader from Thermofisher (Madrid, Spain). The experiments were repeated a minimum of three times.
Figure 4 In vitro screening of I2-IR ligands: Assessment of neuroprotective and anti-inflammatory effects HT-22 cells exposed to 10mM glutamate for at least 16 h Similarly, SH-SY5Y was damaged with 35 μM 6-OHDA (35 μM). Some cultures were pretreated with the I2-IR ligands. Cell viability was evaluated using the MTT assay, and nitrite production in the cell supernatant was quantified using the Griess reaction. The reported values represent the mean ± SD obtained from triplicate determinations repeated at least three times. Statistical analysis was performed: * p ≤ 0.05, ** p ≤ 0.01, *** p ≤ 0.001 (versus glutamate- or 6-OHDA-treated cultures); ^# p ≤ 0.05, ^### p ≤ 0.001 (versus idazoxan-treated cultures); ^& p ≤ 0.1, ^&&& p ≤ 0.001 (versus 2-BFI-treated cultures).

[1] = target: α2-adrenergic receptor (α2-AR); experiment: Competition binding against [3H]RX821002, membranes from post-mortem human frontal cortex
From the text: The inhibition constant (Ki) for each compound was obtained and is expressed as the corresponding pKi. The selectivity for these two receptors was expressed by the I2/α2 index, calculated as the antilogarithm of the […] between pKi values for I2-IR and pKi values for α2-AR.
Preparation of cellular membranes.
Human brain samples were obtained at autopsy in the Basque Institute of Legal Medicine, Bilbao, Spain. Samples from the prefrontal cortex (Brodmann’s area 9) were dissected at the time of autopsy and immediately stored at -70 °C until assay. The study was developed in compliance with policies of research and ethical review boards for postmortem brain studies.
To obtain cellular membranes (P2 fraction) the different samples were homogenized using an ultraturrax in 10 volumes of homogenization buffer (0.25 M sucrose, 5 mM Tris–HCl, pH 7.4).
The crude homogenate was centrifuged for 5 min at 1000 g (4 °C) and the supernatant was centrifuged again for 10 min at 40,000 g (4 °C). The resultant pellet was washed twice in 5 volumes of homogenization buffer and recentrifuged in similar conditions. Protein content was measured according to the method of Bradford using BSA as standard.
Competition Binding Assays.
The pharmacological activity of the compounds was evaluated through competition binding studies against the I2-IR selective radioligand [3H]2-BFI or the α2-adrenergic receptor selective radioligand [3H]RX821002. Specific binding was measured in 0.25 mL aliquots (50 mM Tris-HCl, pH 7.5) containing 100 µg of membranes, which were incubated in 96-well plates either with […]
Incubations were terminated by separating free ligand from bound ligand by rapid filtration […]
counted for radioactivity by liquid scintillation spectrometry using a MicroBeta TriLux counter (PerkinElmer). Specific binding was determined and plotted as a function of the compound concentration. Nonspecific binding was determined in the presence of idazoxan (10–5 M), a compound with well stablished affinity for I2-IR and α2-adrenergic receptors, in [3H]2-BFI and [3H]RX821002 assays. To obtain the inhibition constant (Ki) analyses of competition experiments were performed by nonlinear regression using the GraphPad Prism program. Ki values were normalized to pKi values. I2-IR/α2 selectivity index was calculated as the antilogarithm of the difference between pKi values for I2-IR and pKi values for α2-ARs.

I2-IR = details: rat cerebral cortex, 1 µM yohimbine; >50% considered significant

Row | SMILES | neuroprotection (cell viability, MTT) (HT-22 hippocampal cells) | nitrite production (HT-22 hippocampal cells) | [3H]-RX821002 α2 pKi [1] | inhibition of [3H]idazoxan binding (I2-IR)
1 | Cl.c1ccc2sc(-c3ncc[nH]3)cc2c1 [LSL33, 2-(Benzo[b]thiophene-2-yl)-1H-imidazole hydrochloride] | potent neuroprotective effects | significant attenuation of the increased nitrite production | 4.70 ± 0.12 | 84%
2 | Cl.c1ccc2oc(-n3ccnc3)cc2c1 [LSL34, 1-(Benzofuran-2-yl)-1H-imidazole hydrochloride] | potent neuroprotective effects | significant attenuation of the increased nitrite production | – | 53%
3 | c1ccc2oc(-c3ncc[nH]3)cc2c1 [LSL60101, reference compound] | potent neuroprotective effects | significant attenuation of the increased nitrite production | 3.18 ± 0.17 | –
